Reference: PMC8646019, “Azvudine is a thymus-homing anti-SARS-CoV-2 drug effective in treating COVID-19 patients” (Signal Transduction and Targeted Therapy, 2021)
Where two headings read alike, the source gives them in different places.

Assays:
[1] = Biodistribution and metabolism of remdesivir in rats (UHPLC-MS/MS); type: in vivo, Sprague-Dawley rats; conditions: rat; for concentration at 2 h / concentration at 6 h: male, Sprague-Dawley, in vivo, 100 mg/kg; for concentration at 2 h / concentration at 6 h / Concentration in PBMCs / Concentration in epididymis / Concentration in lung / Concentration in brain / Concentration in heart / Concentration in liver: GS-5734 100 mg/kg i.p.; for Concentration in PBMCs / Concentration in epididymis / Concentration in lung / Concentration in brain / Concentration in heart / Concentration in liver: average n=5
Procedure: 10 male Sprague-Dawley rats (250 ± 25 g) were purchased from Vital River Laboratories Co., LTD (Beijng, China). The rats were divided randomly into two groups with five rats in each, and were administered with GS-5734 at a single dose of 100 mg/kg, i.p. At the time point of 2h and 6h after drug administration, rats in one group were dissected with euthanization and blood samples as well as heart, liver, spleen, lung, kidney, brain, thymus, testis, and epididymis were collected for UHPLC-MS/MS analysis as mentioned above.
The analysis method was like that for FNC expect that the flow rate was set at 0.4 mL/min and the gradient elution was employed using the following program: 0-1.5min, 100-65%B; 1.5-4min, 65-60%B; 4-5min, 60-56%B. Multiple-reaction monitoring (MRM) mode was performed using the characteristic precursor to product ion transitions (Supplementary Table 4b).
The standard curves of blank kidney tissue matrix, plasma matrix and PBMCs matrix were applied for quantitative analysis of GS-5734 and its metabolites. GS-5734, Nuc, Nuc-MP and Nuc-TP were quantified using their own standard curves, and the metabolites of GS-5734 (Ala-Nuc and Nuc-DP) were quantified using Nuc-MP standard curves.
Figure. S4. […] 10 male Sprague-Dawley rats were administered with GS-5734 at a single dose of 100 mg/kg, i.p. At the time point of 2 h and 6 h after drug administration, five rats were dissected. The blood samples as well as heart, liver, spleen, lung, kidney, brain, thymus, testis, and epididymis were collected for UHPLC-MS/MS analysis performed on a UHPLC system (1290 series, Agilent Technologies, US) coupled to a triple quadrupole mass spectrometer (Agilent 6470 QQQ). a.

HCoV-OC43 = assay: Anti-HCoV-OC43 assay in H460 cells (CPE, Western blot, immunofluorescence); type: cell-based
SARS-CoV-2 [2] = assay: Anti-SARS-CoV-2 assay in Calu-3 cells (qRT-PCR); type: cell-based
[3] = Cytotoxicity in Vero E6 cells (Cell Titer 96 Aqueous one Solution Cell Proliferation Assay); type: cell-based; conditions: African green monkey, Vero E6, 48 h
Procedure: (§1) The cytotoxicity of the tested drugs in Vero E6 or Calu-3 Cells were determined by Cell Titer 96® Aqueous one Solution Cell Proliferation Assay (Promega, US). To evaluate the antiviral efficacy of the drugs, Vero E6 or Calu-3 cells were cultured overnight in 96-well plate with a density of 4 ×10^4 cells/well. Cells were pre-treated with the different doses of the indicated antivirals for 1 h. Viruses (MOI=0.05) were subsequently added to cells, followed by 1 h incubation. Then, the virus-drug mixture was removed and cells were further cultured with fresh drug-containing medium. At 48 h post infection (pi), the culture supernatant was collected and lysed in Trizol (Thermo, Cat no. 15596018) for further analysis. Remdesivir was tested as reference.

[4] = Cytotoxicity in Calu-3 cells (Cell Titer 96 Aqueous one Solution Cell Proliferation Assay); type: cell-based; conditions: human, Calu-3, 48 h
Procedure: as §1

[5] = test system: SARS-CoV-2 and HCoV-OC43 coronavirus; assay: Anti-coronavirus activity in vitro, summary over viruses and cells; type: cell-based; conditions: depending on viruses or cells
SARS-CoV-2 [6] = assay: Anti-SARS-CoV-2 assay in Vero E6 cells (qRT-PCR of viral RNA copies, CPE); type: cell-based

Q: With CCC(CC)COC(=O)[C@H](C)N[P@](=O)(OC[C@H]1O[C@@](C#N)(c2ccc3c(N)ncnn23)[C@H](O)[C@@H]1O)Oc1ccccc1 [Remdesivir, reference compound] as the molecule, how does the concentration at 2 h ([1]; 2 h, average n=5, read-out: Concentration in brain) read?
A: 0.61 ng/g

Q: And the concentration at 2 h ([1]; 2 h, average n=5, read-out: Concentration in epididymis)?
A: 42.1 ng/g

Q: And the concentration at 2 h ([1]; 2 h, average n=5, read-out: Concentration in heart)?
A: 5.12 ng/g

Q: And the concentration at 2 h ([1]; 2 h, average n=5, read-out: Concentration in kidney)?
A: 25.4 ng/g

Q: What about the concentration at 2 h ([1]; 2 h, average n=5, read-out: Concentration in liver) of the same molecule?
A: 38.4 ng/g

Q: What about the concentration at 2 h ([1]; 2 h, average n=5, read-out: Concentration in lung) of the same molecule?
A: 5.14 ng/g

Q: What about the concentration at 2 h ([1]; 2 h, average n=5, read-out: Concentration in spleen) of the same molecule?
A: 39.4 ng/g

Q: And the concentration at 2 h ([1]; 2 h, average n=5, read-out: Concentration in testis)?
A: 2.88 ng/g

Q: What about the concentration at 2 h ([1]; 2 h, average n=5, read-out: Concentration in thymus) of the same molecule?
A: 29.9 ng/g

Q: And the concentration at 6 h ([1]; 6 h, average n=5, read-out: Concentration in brain)?
A: 0.78 ng/g

Q: What about the concentration at 6 h ([1]; 6 h, average n=5, read-out: Concentration in epididymis) of the same molecule?
A: 0.6 ng/g

Q: And the concentration at 6 h ([1]; 6 h, average n=5, read-out: Concentration in heart)?
A: 28.6 ng/g

Q: And the concentration at 6 h ([1]; 6 h, average n=5, read-out: Concentration in kidney)?
A: 0.84 ng/g

Q: What about the concentration at 6 h ([1]; 6 h, average n=5, read-out: Concentration in liver) of the same molecule?
A: 13.1 ng/g

Q: And the concentration at 6 h ([1]; 6 h, average n=5, read-out: Concentration in lung)?
A: 0.87 ng/g

Q: What about the concentration at 6 h ([1]; 6 h, average n=5, read-out: Concentration in spleen) of the same molecule?
A: 0.32 ng/g

Q: And the concentration at 6 h ([1]; 6 h, average n=5, read-out: Concentration in thymus)?
A: 2.74 ng/g

Q: Which results are given for N#C[C@@]1(c2ccc3c(N)ncnn23)O[C@H](COP(=O)(O)O)[C@@H](O)[C@H]1O [Nuc-MP]?
A: Concentration in PBMCs ([1]; 2 h): 0.44 ng/10^6 cells; Concentration in epididymis ([1]; 2 h): 6493.99 ng/g tissue; Concentration in lung ([1]; 2 h): 3904.37 ng/g tissue; Concentration in PBMCs ([1]; 6 h): 0.32 ng/10^6 cells; Concentration in epididymis ([1]; 6 h): 555.72 ng/g tissue; Concentration in lung ([1]; 6 h): 309.88 ng/g tissue

Q: With C[C@H](NP(=O)(O)OC[C@H]1O[C@@](C#N)(c2ccc3c(N)ncnn23)[C@H](O)[C@@H]1O)C(=O)O [Ala-Nuc] as the molecule, how does the “Concentration in PBMCs” value ([1]; 2 h) read?
A: 0.55 ng/10^6 cells

Q: What about the Concentration in brain ([1]; 2 h) of the same molecule?
A: 24.16 ng/g tissue

Q: And the Concentration in epididymis ([1]; 2 h)?
A: 24.05 ng/g tissue

Q: What about the Concentration in heart ([1]; 2 h) of the same molecule?
A: 3908.49 ng/g tissue

Q: And the Concentration in liver ([1]; 2 h)?
A: 1304.94 ng/g tissue

Q: And the Concentration in lung ([1]; 2 h)?
A: 82.87 ng/g tissue

Q: And the “Concentration in PBMCs” value ([1]; 6 h)?
A: 0.50 ng/10^6 cells

Q: And the Concentration in brain ([1]; 6 h)?
A: 38.27 ng/g tissue

Q: What about the Concentration in epididymis ([1]; 6 h) of the same molecule?
A: 48.37 ng/g tissue

Q: And the Concentration in heart ([1]; 6 h)?
A: 5730.68 ng/g tissue

Q: What about the Concentration in liver ([1]; 6 h) of the same molecule?
A: 416.97 ng/g tissue

Q: What about the Concentration in lung ([1]; 6 h) of the same molecule?
A: 73.42 ng/g tissue

Q: What does the source list for N#C[C@@]1(c2ccc3c(N)ncnn23)O[C@H](COP(=O)(O)OP(=O)(O)OP(=O)(O)O)[C@@H](O)[C@H]1O [Nuc-TP]?
A: Concentration in PBMCs ([1]; 2 h): 12.32 ng/10^6 cells; Concentration in epididymis ([1]; 2 h): 486.87 ng/g tissue; Concentration in lung ([1]; 2 h): 3168.31 ng/g tissue; Concentration in PBMCs ([1]; 6 h): 12.82 ng/10^6 cells; Concentration in epididymis ([1]; 6 h): 1225.27 ng/g tissue; Concentration in lung ([1]; 6 h): 2057.66 ng/g tissue; level of Nuc-TP in the thymus ([1]; remdesivir ip, 2 and 6 h): below the detectable line

Q: With N#C[C@@]1(c2ccc3c(N)ncnn23)O[C@H](COP(=O)(O)OP(=O)(O)O)[C@@H](O)[C@H]1O [Nuc-DP] as the molecule, how does the “Concentration in PBMCs” value ([1]; 2 h) read?
A: 0.15 ng/10^6 cells

Q: And the Concentration in epididymis ([1]; 2 h)?
A: 33.09 ng/g tissue

Q: And the Concentration in lung ([1]; 2 h)?
A: 146.16 ng/g tissue

Q: And the “Concentration in PBMCs” value ([1]; 6 h)?
A: 0.14 ng/10^6 cells

Q: What about the Concentration in epididymis ([1]; 6 h) of the same molecule?
A: 49.65 ng/g tissue

Q: And the Concentration in lung ([1]; 6 h)?
A: 118.94 ng/g tissue

Q: For CC(C)OC(=O)[C@H](C)N[P@](=O)(OC[C@@]1(N=[N+]=[N-])O[C@@H](n2ccc(N)nc2=O)[C@@H](F)[C@@H]1O)Oc1ccccc1 [CL-236], which EC50 (HCoV-OC43; Betacoronavirus 1, OC43, NCI-H460, evaluated by CPE, read-out: EC50, HCoV-OC43 infection) is on record?
A: 1.2 µM

Q: And the “HCoV-OC43 N protein expression” value (HCoV-OC43; Western blot, 48 h)?
A: decrease in N protein expression

Q: What about the SI (HCoV-OC43; evaluated by CPE) of the same molecule?
A: 20

Q: What about the “selectivity index (SI)” value (SARS-CoV-2 [2]; Calu-3) of the same molecule?
A: 83

Q: And the EC50 (SARS-CoV-2 [2]; Severe acute respiratory syndrome coronavirus 2, Calu-3, MOI 0.05, qRT-PCR, 48 h, read-out: EC50, SARS-CoV-2 RNA replication)?
A: 1.2 µM

Q: And the CC50 at 48 h [3]?
A: 66.2 µM

Q: What about the CC50 at 48 h [4] of the same molecule?
A: > 102 µM

Q: What about the EC50 [5] of the same molecule?
A: 1.2 to 4.3 µM

Q: What about the “selective index (SI)” value [5] of the same molecule?
A: 15–83

Q: What about the EC50 (SARS-CoV-2 [6]; Severe acute respiratory syndrome coronavirus 2, Vero C1008, 48 h, Vero E6, MOI 0.05, qRT-PCR, 48 h, read-out: EC50, SARS-CoV-2 RNA replication) of the same molecule?
A: 4.31 µM

Q: And the “selectivity index (SI)” value (SARS-CoV-2 [6]; Vero E6)?
A: 15.35

Q: And the “cytopathic effect (CPE) of SARS-CoV-2” value (SARS-CoV-2 [6]; Vero E6, 48 h)?
A: protected the cells from SARS-CoV-2-caused cell death
